Test results: patent US11780821B2, “Inhibitors of fibroblast activation protein” (Praxis Biotech LLC, priority 2017, dated 2023)
pIC50: −log10 of the molar value. Read-outs that look alike come from different tables or passages of the source.

Key:
[1] = Intravenous and oral bioavailability in mice; format: in vivo; settings: mouse, plasma
Procedure: The pharmacokinetic properties of exemplary test compounds were assayed after administration of an intravenous (IV) 2 mg/kg or oral (PO) 10 mg/kg single dose in mice. Exemplary test compounds were formulated at 0.4 and 1 mg/ml in a vehicle containing Poly-Ethylene Glycol 200 (PEG200; Cat. No. #P3015, Sigma Aldrich) and distilled water (dH2O) (50/50, v/v) as dosing solutions for intravenous and oral administration, respectively.
C57BL/6j and Balb/c mice, approximately 8-10 weeks old, were obtained from the vivarium Fundación Ciencia & Vida Chile (Santiago, Chile) and maintained in a temperature-controlled room with 12/12 hr light/dark schedule with food and water ad libitum. Animals were acclimated for a minimum period of 4 days upon arrival at the testing facility.
On the day of study, mice were weighed and identified by marking the tail with numbers using a non-toxic permanent marker for designation into the experimental groups (n=3 per group). Each mouse in the IV dosing groups received a systemic bolus of 2 mg/kg dosing solution via the caudal vein.
Non-dosed mice were used to collect samples of zero time points. […] Blood samples were centrifuged immediately at 9,000 g at 4° C. for 5 min and the plasma was separated.
The plasma samples were analyzed by QTRAP 4500 triple quadrupole mass spectrometer (Applied Biosystems SCIEX) in positive or negative ion mode depending on the tested compound and interfaced with an ekspert ultraLC 100-XL UPLC System (eksigent) to determine the concentration of the exemplary test compound. […] The precipitated samples were centrifuged at 6,100 g for 30 min at 4° C. Following centrifugation, an aliquot of each supernatant was transferred into a clean sample vial and diluted with two volumes of aqueous mobile phase (0.2% formic acid in water). Samples were injected onto a reverse phase analytical column (YMC Triart C18; 2.0×50 mm; 1.9 μm; YMC CO) and eluted with a gradient of 0.1 or 0.2% formic acid in Acetonitrile. Test compound and internal standard were monitored by a multiple reaction monitoring (MRM) experiment using Analyst software (v1.6.2, Applied Biosystems SCIEX). Quantitation was conducted using MultiQuant software (v2.1, Applied Biosystems SCIEX) and the resulting calibration curve was fitted with a linear or quadratic regression and 1/x weighting.
IV and PO PK parameters were calculated from the concentration-time data using Phoenix WinNonlin software (v6.4, Certara, Princeton, N.J.) by noncompartmental analysis. Area under the concentration-time curve (AUClast) was estimated using a log-linear trapezoidal method, from the dosing time to the last measurable concentration.

[2] = biological target: T1, recombinant human DPP9 (rhDPP9) (Homo sapiens, UniProt Q86TI2); assay: DPP9 enzymatic activity assay; format: biochemical; settings: H-Gly-Pro-AMC substrate
T1 construct: purchased R&S system (so in the source)
Procedure: (§1) 7-Amino-4-Methylcoumarin (AMC) release was detected by measuring fluorescence at Ex/Em 380/460 nm using a Multifunction Microplate Reader (Synergy 4, Biotek). All measurements were carried out in triplicate.

[3] = biological target: T2, recombinant human PREP (rhPREP) (Homo sapiens, UniProt P48147); assay: PREP enzymatic activity assay; format: biochemical; settings: Z-Gly-Pro-AMC substrate
T2 sequence (P48147 1-710): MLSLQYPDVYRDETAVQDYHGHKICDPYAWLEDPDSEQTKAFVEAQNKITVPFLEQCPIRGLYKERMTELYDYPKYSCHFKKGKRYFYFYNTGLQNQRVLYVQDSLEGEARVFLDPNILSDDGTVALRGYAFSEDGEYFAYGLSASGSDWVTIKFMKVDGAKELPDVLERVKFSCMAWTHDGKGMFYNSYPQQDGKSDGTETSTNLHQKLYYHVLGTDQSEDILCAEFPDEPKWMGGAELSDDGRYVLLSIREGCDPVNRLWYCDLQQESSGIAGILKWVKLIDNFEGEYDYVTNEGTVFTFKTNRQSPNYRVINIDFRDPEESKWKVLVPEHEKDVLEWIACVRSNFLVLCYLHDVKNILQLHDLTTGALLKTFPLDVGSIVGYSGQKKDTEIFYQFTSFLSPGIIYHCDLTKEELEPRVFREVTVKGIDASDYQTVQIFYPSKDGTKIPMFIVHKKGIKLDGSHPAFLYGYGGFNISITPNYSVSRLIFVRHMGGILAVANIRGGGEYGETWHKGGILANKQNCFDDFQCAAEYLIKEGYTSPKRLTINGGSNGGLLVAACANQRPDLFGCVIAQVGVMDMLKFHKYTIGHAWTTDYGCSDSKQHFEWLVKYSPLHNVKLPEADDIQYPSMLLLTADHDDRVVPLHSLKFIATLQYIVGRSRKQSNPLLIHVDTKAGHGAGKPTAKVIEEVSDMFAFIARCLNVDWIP
Procedure: as §1

mouse plasma FAPα = biological target: T3, mouse plasma FAPα (Mus musculus, UniProt P97321); assay: FAPα enzymatic activity in mouse plasma; format: biochemical; settings: C57BL/6 mouse plasma
T3 construct: from tissue; host or cells: mouse plasma (C57BL/6, EDTA)
T3 sequence (P97321 24-761 limits assumed): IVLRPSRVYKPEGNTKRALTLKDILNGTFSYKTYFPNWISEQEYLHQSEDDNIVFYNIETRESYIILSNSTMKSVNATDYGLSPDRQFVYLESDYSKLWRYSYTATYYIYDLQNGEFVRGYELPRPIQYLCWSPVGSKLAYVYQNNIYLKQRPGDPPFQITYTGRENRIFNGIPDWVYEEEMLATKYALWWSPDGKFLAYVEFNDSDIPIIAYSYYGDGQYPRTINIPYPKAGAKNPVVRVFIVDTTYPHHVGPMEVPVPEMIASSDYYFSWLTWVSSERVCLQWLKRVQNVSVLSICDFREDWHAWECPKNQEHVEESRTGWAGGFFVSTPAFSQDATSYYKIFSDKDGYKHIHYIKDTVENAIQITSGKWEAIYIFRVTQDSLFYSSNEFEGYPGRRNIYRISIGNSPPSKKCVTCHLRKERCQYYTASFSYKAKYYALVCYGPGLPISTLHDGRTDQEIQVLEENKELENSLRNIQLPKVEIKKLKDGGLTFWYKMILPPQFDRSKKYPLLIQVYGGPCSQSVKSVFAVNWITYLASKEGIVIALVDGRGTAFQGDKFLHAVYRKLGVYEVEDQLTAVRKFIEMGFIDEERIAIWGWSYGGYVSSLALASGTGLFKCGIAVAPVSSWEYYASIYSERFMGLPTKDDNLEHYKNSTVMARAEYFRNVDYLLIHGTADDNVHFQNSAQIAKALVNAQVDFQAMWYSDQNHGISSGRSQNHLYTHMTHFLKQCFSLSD
Procedure: The blood sample was immediately centrifuged at approximately 9000 g at 4° C. for 5 minutes. Plasma was separated and stored at −80° C. in aliquots of 300 μL. […] The assay was performed for 1 hour at 37° C. protected from light. 7-Amino-4-Methylcoumarin (AMC) release was detected measuring fluorescence at an excitation wavelength of 380 nm and an emission wavelength of 460 nm using a Multifunction Microplate Reader (Synergy 4, Biotek). All measurements were carried out at least as a single point.

T1 sequence (Q86TI2 whole entry): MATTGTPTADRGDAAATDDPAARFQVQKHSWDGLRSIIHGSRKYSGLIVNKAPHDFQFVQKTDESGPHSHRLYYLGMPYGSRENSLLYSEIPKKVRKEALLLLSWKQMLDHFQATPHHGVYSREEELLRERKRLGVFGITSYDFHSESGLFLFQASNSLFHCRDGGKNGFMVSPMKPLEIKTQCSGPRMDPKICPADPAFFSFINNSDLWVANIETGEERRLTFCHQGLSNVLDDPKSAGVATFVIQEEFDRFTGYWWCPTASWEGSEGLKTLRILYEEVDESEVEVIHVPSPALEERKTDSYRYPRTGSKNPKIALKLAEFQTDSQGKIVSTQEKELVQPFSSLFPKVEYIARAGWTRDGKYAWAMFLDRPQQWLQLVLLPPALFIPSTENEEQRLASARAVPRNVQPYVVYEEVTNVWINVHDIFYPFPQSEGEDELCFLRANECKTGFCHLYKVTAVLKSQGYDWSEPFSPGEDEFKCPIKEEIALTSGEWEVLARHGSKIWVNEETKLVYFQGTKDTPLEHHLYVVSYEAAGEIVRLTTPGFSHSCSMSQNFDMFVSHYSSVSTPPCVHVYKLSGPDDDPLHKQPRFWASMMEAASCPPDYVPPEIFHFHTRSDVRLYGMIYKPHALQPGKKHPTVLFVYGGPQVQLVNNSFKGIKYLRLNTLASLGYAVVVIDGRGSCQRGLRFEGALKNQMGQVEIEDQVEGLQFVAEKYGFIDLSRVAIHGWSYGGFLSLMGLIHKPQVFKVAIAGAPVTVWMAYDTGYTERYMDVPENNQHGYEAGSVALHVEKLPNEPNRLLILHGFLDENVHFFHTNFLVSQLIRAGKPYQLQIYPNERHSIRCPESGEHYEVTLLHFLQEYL

- AUC(0-t) ([1]; oral (PO) 10 mg/kg single dose): 1090 ng·h/mL
- bioavailability ([1]; PO 10 mg/kg vs IV 2 mg/kg, read-out: F (bioavailability)): 79.6%
- pIC50 [2]: > 6.00
- pIC50 [3]: 5.00 to 6.00
- pIC50 (mouse plasma FAPα; PRXS-AMC substrate, read-out: mouse plasma FAPα (PRXS-AMC) (exo IC50)): > 6.00
- pIC50 (mouse plasma FAPα; Z-Gly-Pro-AMC substrate, read-out: mouse plasma FAPα (Z-Gly-Pro-AMC) (exo IC50)): > 6.00
Compound: N#C[C@@H]1CC(F)(F)CN1C(=O)CNC(=O)c1ccncc1Cc1ccccc1 [Compound 50, (S)-3-benzyl-N-(2-(2-cyano-4,4-difluoropyrrolidin-1-yl)-2-oxoethyl)isonicotinamide]
